Source: patent US9034814B2, “CXCR4 antagonists for wound healing and re-epithelialization” (Hadasit Medical Research Services and Development Ltd., priority 2005, dated 2015)
“Also recorded” adds a separate entry of the source. Bridge positions count the residues as written; N and C are the ends. Square brackets hold non-standard residues; d marks the D form. * marks the point of attachment. 2Nal = N[C@@H](Cc1ccc2ccccc2c1)C(=O)O; Benzoyl(4-F) = O=C(c1ccc(F)cc1)*; Cit = NC(=O)NCCC[C@H](N)C(=O)O

How the values were obtained:
[1] = system: partial thickness burns in a rat model; assay: Rat partial thickness burn wound healing, histological evaluation; format: in vivo
Text: In order to examine the different phases in burn wound healing and the involvement of the chemokine CXCL12 and the receptor CXCR4, the following experiments were done. Wistar female rats were anesthetized and their back was shaved. 1 cm^2 burns were inflicted with a metal rod that has been immersed in a hot boiling water bath and laid on the posterior part of the hip and back for 2-3 seconds. All experiments were approved by the Animal care committee of the Medical Center, Tel-Aviv and the Hebrew University. Heterozygous mice bearing a GFP reporter knocked-in allele to the CX3CR1 locus (Qu et al. 2004) were maintained at the Weizmann Institute of Science Animal Facility, and burns were inflicted as described above. Each group of 3 animals was injected subcutaneously to the burned area with PBS. Animals were sacrificed at the indicated times after burn infliction: 0, 6 hr, 1 day, 3 days, 5 days and 7 days. Histopathological diagnosis was confirmed for each specimen. Histological sections were prepared from formalin-fixed, paraffin-embedded tissues stained with Hematoxylin and Eosin. Evaluation to the level of epithelialization and white blood cells (WBC) in the epidermis and dermis was made to each section by a scale from 1-5. The sections were scored by two independent pathologists.
In other experiments, treated rats were injected subcutaneously to the burned area with one of the following: PBS, mAb against Rat CXCR4 (12G5 clone, R&D Systems Inc., Minneapolis, Minn.), or the small peptide CXCR4 inhibitor 4F-benzoyl-TN14003 (4F-benzoyl-Aig-Arg-Nal-Cys-Tyr-Cit-Lys-DLys-Pro-Tyr-Arg-Cit-Cys-Arg-NH2, SEQ ID NO:52; Tamamura et al., 2003). All animals were sacrificed 120 hr after injury. Histopathological diagnosis was confirmed for each specimen. Histological sections were prepared from formalin-fixed, paraffin-embedded tissues stained with Hematoxylin and Eosin. Evaluation to the level of epithelialization and white blood cells (WBC) in the dermis was made to each section by a scale from 1-5. The grading scale was as follows: 0=No inflammation or epithelialization; 1=Low inflammation or epithelialization; 2=Low to moderate inflammation or epithelialization; 3 Moderate inflammation or epithelialization; 4=High inflammation or epithelialization; 5=Very high inflammation or epithelialization. Each section was evaluated by two independent pathologists.
Next, the inhibitory effect of CXCR4 antagonists on burn wound healing was examined (FIG. 9). Inhibitors were injected subcutaneously to the burned area at 0, 1 day, and 3 days (20 μg per injection), and animals were sacrificed 5 days post burn. […] A small but not significant decrease in the PMN population in the dermis was observed (FIG. 10). […]

CXCR4 = target: T1, CXCR4 (Rattus norvegicus, UniProt O08565); assay: Transwell migration of rat lymphocytes in response to CXCL12; format: cell-based; conditions: CXCL12 100 ng/ml; antibody against CXCR4 10 μg/ml; FIG. 8
T1 construct: endogenous in cells; host or cells: rat peripheral blood mononuclear cells / lymphocytes (Ficoll-Histopaque isolated)
Procedure: Rat peripheral blood cells were loaded on Ficoll-Histopaque gradient (Histopaque-1077-1, Sigma) and the peripheral blood mononuclear cells (PBMC) were isolated. Rat PBMC migration was assessed in 24-well chemotaxis chambers (6.5-mm diameter, 5-μm pore polycarbonate transwell culture insert; Costar, Cambridge, Mass.). 600 μl RPMI 1640 with 1% BSA (migration buffer) with or without 100 ng/ml of CXCL12α (Peprotech) were added to the lower wells, and 2×10^5 cells suspended in 100 μl of RPMI 1640 with 1% BSA were added to the upper wells. After three hours of incubation, the membrane was removed and migrating cells were counted for 1 min using fluorescence activated cell sorting (FACS).
In order to evaluate the effect of the CXCR4 antagonist 4F-benzoyl-TN14003 and neutralizing antibodies to the receptor on the recovery of rat skin, the inventors first tested their ability to inhibit the migration of rat lymphocytes in response to CXCL12. Migration assay was carried out on total rat lymphocytes separated by Ficoll gradient and their migrating ability to medium containing CXCL12 was examined. Lymphocytes were incubated with the CXCR4 antagonist 4F-benzoyl-TN14003, or an antibody against CXCR4 (10 μg/ml).

[2] = rat burn, 20 μg per injection s.c. at 0, 1 day, 3 days, 5 days post burn, FIG. 11

T1 sequence (O08565 whole entry): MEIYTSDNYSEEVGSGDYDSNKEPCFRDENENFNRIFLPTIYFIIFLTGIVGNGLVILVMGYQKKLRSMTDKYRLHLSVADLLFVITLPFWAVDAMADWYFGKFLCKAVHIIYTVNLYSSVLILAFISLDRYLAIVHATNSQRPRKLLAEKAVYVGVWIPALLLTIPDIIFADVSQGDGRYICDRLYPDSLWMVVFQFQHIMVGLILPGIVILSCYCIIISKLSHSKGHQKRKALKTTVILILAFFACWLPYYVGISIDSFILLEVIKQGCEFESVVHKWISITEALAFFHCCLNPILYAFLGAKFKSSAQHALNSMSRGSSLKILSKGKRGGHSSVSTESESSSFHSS

effect on the migration of rat lymphocytes in response to CXCL12 (CXCR4): strong inhibitory effect
Substance: 4F-benzoyl-Arg-Arg-Nal-Cys-Tyr-Cit-Lys-DLys-Pro-Tyr-Arg-Cit-Cys-Arg-NH2 ({Benzoyl(4-F)}-RR[2Nal]CY[Cit]K[dK]PYR[Cit]CR-NH2; disulfide 4-13 (inferred)) [4F-benzoyl-TN14003]
accumulation of PMN cell population in the epidermis [1, 2]: not affected
eosinophil accumulation in the dermis [1, 2]: reduced eosinophilia; also recorded: strong and significant inhibition
epithelialization ([1]; rat burn, 20 μg per injection subcutaneously to the burned area at 0, 1 day, 3 days, sacrificed 5 days post burn, FIG. 9): improved epithelialization; also recorded: increased epithelialization
potency in improving wound healing in vivo, peptide antagonist versus neutralizing mAb ([1]; rat partial thickness burns): more potent than the neutralizing mAb
